Assay [1] concerns the target T1, HDAC7 (Homo sapiens, UniProt Q8WUI4).
T1 sequence (Q8WUI4 1-952): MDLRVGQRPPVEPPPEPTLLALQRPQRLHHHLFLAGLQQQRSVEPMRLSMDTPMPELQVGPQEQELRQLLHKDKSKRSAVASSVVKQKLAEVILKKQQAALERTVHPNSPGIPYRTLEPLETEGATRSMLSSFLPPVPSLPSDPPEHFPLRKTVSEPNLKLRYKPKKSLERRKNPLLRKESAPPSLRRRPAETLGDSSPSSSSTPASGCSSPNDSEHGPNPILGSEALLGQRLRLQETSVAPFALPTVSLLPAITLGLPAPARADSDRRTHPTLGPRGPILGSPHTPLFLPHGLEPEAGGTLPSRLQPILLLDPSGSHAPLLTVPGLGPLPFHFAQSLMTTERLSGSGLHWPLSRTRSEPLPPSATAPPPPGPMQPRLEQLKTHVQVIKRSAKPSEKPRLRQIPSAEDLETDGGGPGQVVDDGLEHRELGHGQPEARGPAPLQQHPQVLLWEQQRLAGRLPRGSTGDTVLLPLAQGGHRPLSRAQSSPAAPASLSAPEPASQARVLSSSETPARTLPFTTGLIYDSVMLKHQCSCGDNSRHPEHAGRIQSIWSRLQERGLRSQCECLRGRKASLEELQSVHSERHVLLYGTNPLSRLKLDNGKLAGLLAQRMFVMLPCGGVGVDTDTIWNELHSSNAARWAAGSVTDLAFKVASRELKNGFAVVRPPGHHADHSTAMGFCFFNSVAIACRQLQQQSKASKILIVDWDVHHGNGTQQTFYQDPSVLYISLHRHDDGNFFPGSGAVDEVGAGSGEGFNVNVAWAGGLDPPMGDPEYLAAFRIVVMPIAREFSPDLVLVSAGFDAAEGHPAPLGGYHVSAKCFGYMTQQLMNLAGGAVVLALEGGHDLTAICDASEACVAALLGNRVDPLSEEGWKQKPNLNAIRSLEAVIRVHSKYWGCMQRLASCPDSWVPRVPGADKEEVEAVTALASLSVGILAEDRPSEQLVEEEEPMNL
Put plainly: HDAC biochemical activity measurement (fluorescent substrate deacetylation).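 Further: fluorogenic deacetylation assay using acetyl-lysine substrate at 20 µM, enzyme and compound incubated 30 min at 37 °C, then developer added, fluorescence read at 360/460 nm.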 The settings on record: HDAC7; 37° C. 30 minutes.

The subject of assay [2] is A549 (human lung cancer cells). As to the kind of experiment: MTT cancer cell growth inhibition. It counts as cell-based. The note with it: Homo sapiens, A549, 72 h, MTT, 72 hours incubation, read-out: GI50 A54. The method in brief: (§1)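 Read-out was formazan absorbance at 570 nm after a 4 h MTT step and DMSO solubilisation, converted to cell viability and fitted for GI50. Beforehand, cells (1500/well, overnight attachment) were treated with compound at 10^−5 to 10^−10 M for 72 h at 37° C.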

For assay [3], the system named is BGC-823 (human gastric cancer cells). Put plainly: MTT cancer cell growth inhibition. The note with it: Homo sapiens, BGC-823, 72 h, MTT, 72 hours incubation, read-out: GI50 BG. It counts as cell-based. The method in brief: as §1
Assay [4] concerns Bel-7402 (human hepatoma cells). Put plainly: MTT cancer cell growth inhibition. It counts as cell-based. The note with it: Homo sapiens, Bel-7402, 72 h, MTT, 72 hours incubation, Bel-7402 cells; read-out: GI50 Bel-7402. A digest of the protocol: as §1
In assay [5] the test system is DU145 (human prostate cancer cells). Put plainly: MTT cancer cell growth inhibition. It counts as cell-based. The settings on record: Homo sapiens, DU-145, 72 h, MTT, 72 hours incubation, read-out: GI50 Du1. A digest of the protocol:
as §1

Assay [6] deals with H1975 (non-small cell lung adenocarcinoma). Put plainly: MTT cancer cell growth inhibition. The assay is classed as cell-based. The note with it: Homo sapiens, NCI-H1975, 72 h, MTT, 72 hours incubation, H1975 cells; read-out: GI50 H1975. A digest of the protocol: as §1
The subject of assay [7] is HCC827 (human non-small cell lung cancer cells). Put plainly: MTT cancer cell growth inhibition. The assay is classed as cell-based. The note with it: Homo sapiens, HCC827, 72 h, MTT, 72 hours incubation, HCC827 cells; read-out: GI50 HCC827. A digest of the protocol:
as §1

Assay [8] deals with HT1080 (human fibrosarcoma cells). As to the kind of experiment: MTT cancer cell growth inhibition. It counts as cell-based. The note with it: Homo sapiens, HT-1080, 72 h, MTT, 72 hours incubation, read-out: GI50 HT1. A digest of the protocol: as §1
The test system of assay [9] is Hela (human cervical cancer cells). As to the kind of experiment: MTT cancer cell growth inhibition. The assay is classed as cell-based. The settings on record: Homo sapiens, HeLa, 72 h, MTT, 72 hours incubation, read-out: GI50 Hela. A digest of the protocol:
as §1

The subject of assay [10] is Huh-7 (human hepatoma cells). Put plainly: MTT cancer cell growth inhibition. The assay is classed as cell-based. The settings on record: Homo sapiens, Huh-7, 72 h, MTT, 72 hours incubation, Huh-7 cells; read-out: GI50 Huh-7. The method in brief:
as §1

The subject of assay [11] is K562 (human leukemia cells). As to the kind of experiment: MTT cancer cell growth inhibition. The settings on record: Homo sapiens, K562, 72 h, MTT, 72 hours incubation, K562 cells; read-out: GI50 K562. The assay is classed as cell-based. A digest of the protocol: as §1
The test system of assay [12] is KBM-5 (human chronic myelogenous leukemia). Put plainly: MTT cancer cell growth inhibition. The settings on record: Homo sapiens, KBM5, 72 h, MTT, 72 hours incubation, KBM-5 cells; read-out: GI50 KBM-5. It counts as cell-based. The method in brief: as §1
For assay [13], the system named is KBM5-T315I (human chronic myelogenous leukemia). Put plainly: MTT cancer cell growth inhibition. The note with it: Homo sapiens, 72 h, MTT, 72 hours incubation, KBM5-T315I cells; read-out: GI50 KBM5-T315I. It counts as cell-based. A digest of the protocol:
as §1

Assay [14] deals with MCF-7 (human breast cancer cells). As to the kind of experiment: MTT cancer cell growth inhibition. It counts as cell-based. The note with it: Homo sapiens, MCF7, 72 h, 72 hours incubation, read-out: GI50 MCF. A digest of the protocol:
as §1

For assay [15], the system named is MDA-MB-231 (breast cancer cells). As to the kind of experiment: MTT cancer cell growth inhibition. It counts as cell-based. The settings on record: Homo sapiens, MDA-MB-231, 72 h, read-out: GI50 MDA-MB-231, MTT, 72 hours incubation, MDA-MB-231 cells. The method in brief: as §1
The test system of assay [16] is MOLT-4 (human acute lymphoblastic leukemia cells). Put plainly: MTT cancer cell growth inhibition. The settings on record: Homo sapiens, MOLT-4, 72 h, MTT, 72 hours incubation, read-out: GI50 Mol. The assay is classed as cell-based. The method in brief:
as §1

Assay [17] relates to N-87 (human gastric cancer cells). As to the kind of experiment: MTT cancer cell growth inhibition. It counts as cell-based. The settings on record: Homo sapiens, 72 h, MTT, 72 hours incubation, N-87 cells; read-out: GI50 N-87. The method in brief:
as §1

In assay [18] the test system is PANC-1 (Pac-1, human pancreatic cancer cells). Put plainly: MTT cancer cell growth inhibition. The settings on record: Homo sapiens, PANC-1, 72 h, MTT, 72 hours incubation, read-out: GI50 PAN. It counts as cell-based. A digest of the protocol: as §1
Assay [19] concerns SGC-7901 (human gastric cancer cells). As to the kind of experiment: MTT cancer cell growth inhibition. It counts as cell-based. The settings on record: Homo sapiens, SGC-7901, 72 h, MTT, 72 hours incubation, SGC-7901 cells; read-out: GI50 SGC-7901. A digest of the protocol:
as §1

For assay [20], the system named is U937 (human leukemia cells). Put plainly: MTT cancer cell growth inhibition. The assay is classed as cell-based. The settings on record: Homo sapiens, U-937, 72 h, MTT, 72 hours incubation, read-out: GI50 U93. The method in brief: as §1
The subject of assay [21] is lncap (prostate cancer cells). As to the kind of experiment: MTT cancer cell growth inhibition. It counts as cell-based. The note with it: Homo sapiens, LNCaP, 72 h, MTT, 72 hours incubation, read-out: GI50 lnca. A digest of the protocol:
as §1

Molecules are shown by their SMILES. Read-outs that look alike come from different tables or passages of the source.

The term GI50 denotes the concentration that inhibits growth by half. `C/C=C1\NC(=O)c2ccc(F)c(n2)CCNC(=O)C[C@@H](/C=C/CCSC(C)=O)OC(=O)[C@H](C(C)C)NC1=O` [Compound 105]: the “IC50 HDAC7” value in assay [1] is on record as “no activity”. Moreover, the GI50 in [2] was 40 nM; in assay [3], 10 nM; in [4], 21 nM; in [5], 30 nM; in assay [6], 97 nM; in [7] it was 47 nM. For the same compound, the GI50 in assay [8] came to 70 nM; in assay [9], 50 nM; in [10] it was 56 nM; in [11], 19 nM; in assay [12] it was 23 nM; in assay [13] it was 53 nM. The GI50 in assay [14] was 20 nM; in assay [15], 86 nM; in assay [16], 20 nM; in assay [17], 93 nM; in assay [18], 70 nM; in assay [19] it was 16 nM. In addition, the concentration for 50% growth inhibition (GI50) in [20] amounted to 50 nM; in [21], 20 nM.

For `C/C=C1\NC(=O)c2ccc(F)c(n2)CNC(=O)C[C@@H](/C=C/CCSC(C)=O)OC(=O)[C@H](CC)NC1=O` [Example 59], in assay [1], the “IC50 HDAC7” value is given as “no activity”. Besides, the GI50 in assay [2] turned out to be 50 nM; in [3], 50 nM; in assay [4] it was 82 nM; in assay [5] it was 30 nM; in [6] it was 39 nM; in assay [7], 82 nM. The 50% growth inhibitory concentration (GI50) was 80 nM in [8]; 60 nM in assay [9]; 37 nM in [10]; 38 nM in assay [11]; 61 nM in [12]; 74 nM in assay [13]. Also, the concentration for 50% growth inhibition (GI50) in [14] came out at 70 nM; in [15], 37 nM; in assay [16] it was 30 nM; in assay [17], 59 nM; in assay [18] it was 80 nM; in [19], 59 nM. Also, the GI50 in [20] and in assay [21] was 30 nM each time.

For `C/C=C1\NC(=O)c2ccc(SC)c(n2)CNC(=O)C[C@@H](/C=C/CCSC(=O)CCCCCCC)OC(=O)[C@H](C)NC1=O` [Compound 182], the “IC50 HDAC7” value in [1] is recorded as “no activity”. Besides, the GI50 in [2] (A549 cells) worked out at 60 nM; in assay [3] (BGC-823 cells), 70 nM; in [4], 35 nM; in assay [5] (DU145 cells), 50 nM; in assay [6], 39 nM; in assay [7] it was 23 nM. Besides, the concentration for 50% growth inhibition (GI50) amounted to 30 nM in [8] (HT1080 cells); 60 nM in assay [9] (Hela cells); 35 nM in [10]; 83 nM in assay [11]; 31 nM in assay [12]; 41 nM in assay [13]. Moreover, the GI50 in assay [14] (MCF-7 cells) came to 30 nM; in [15], 35 nM; in assay [16] (MOLT-4 cells), 30 nM; in [17], 23 nM; in assay [18] (PANC-1 cells), 90 nM; in assay [19] it was 71 nM. Also, the 50% growth inhibitory concentration (GI50) in assay [20] (U937 cells) worked out at 80 nM; in assay [21] (lncap cells) it was 100 nM.

Turning to `C/C=C1\NC(=O)c2ccc(F)c(n2)CNC(=O)C[C@@H](/C=C/CCS)OC(=O)[C@H](C)NC1=O` [Compound 114], the “IC50 HDAC7” value in [1] is listed as “no activity”. The concentration for 50% growth inhibition (GI50) came out at 30 nM in assay [2]; 60 nM in [3]; 42 nM in assay [4]; 60 nM in assay [5]; 32 nM in assay [6]; 71 nM in assay [7]. Further, the GI50 in [8] was 100 nM; in [9] it was 70 nM; in [10] it was 54 nM; in assay [11], 38 nM; in assay [12], 99 nM; in [13], 28 nM. The GI50 was 60 nM in [14]; 22 nM in assay [15]; 100 nM in assay [16]; 11 nM in assay [17]; 60 nM in assay [18]; 43 nM in assay [19]. Also, the concentration for 50% growth inhibition (GI50) turned out to be 30 nM in assay [20] and 70 nM in assay [21].

On to `C/C=C1\NC(=O)c2cc(SC)cc(n2)CNC(=O)C[C@@H](/C=C/CCSC(=O)CCCCC)OC(=O)[C@H](C(C)C)NC1=O` [Compound 154], for which, in assay [1], the “IC50 HDAC7” value is given as “no activity”. Besides, the GI50 was 40 nM in [2] (A549 cells); 40 nM in assay [3] (BGC-823 cells); 53 nM in [4]; 50 nM in assay [5] (DU145 cells); 38 nM in assay [6]; 75 nM in assay [7]. Also, the 50% growth inhibitory concentration (GI50) in assay [8] (HT1080 cells) is 90 nM; in assay [9] (Hela cells), 40 nM; in [10], 47 nM; in assay [11], 28 nM; in [12] it was 29 nM; in assay [13] it was 71 nM. Also, the 50% growth inhibitory concentration (GI50) in assay [14] (MCF-7 cells) was found to be 50 nM; in assay [15], 53 nM; in [16] (MOLT-4 cells), 90 nM; in assay [17], 63 nM; in [18] (PANC-1 cells), 40 nM; in assay [19], 12 nM. Moreover, the GI50 in assay [20] (U937 cells) and in [21] (lncap cells) was 40 nM in each case.

These data come from patent US10065990B2, “Cyclic peptide compound, and preparation method, pharmaceutical composition and use thereof” (HANGZHOU GUANYU BIO-MEDICAL CO., LTD, priority 2013, dated 2018).
